Columns and labels:
UCP2 mRNA = UCP2 mRNA levels in mouse tissues after treatment; format: in vivo, Swiss mice
Text: Regulation of UCP2 has been examined for factors that would regulate UCP1. In 11-week-old fed male Swiss mice, UCP2 mRNA was detected in BAT, WAT, thigh muscle and liver. […] Thus, UCP2 is regulated very differently than UCP1, which is induced by cold and β3 agonists.

[1] = test system: mitochondria isolated from yeast; experiment: Respiratory rates in mitochondria isolated from yeast; format: biochemical
Text: Respiratory rates have been measured in mitochondria isolated from yeast containing the empty pYeDP vector and the pUCP2 vector (Table 1). […] Addition of ADP stimulates respiration more in control mitochondria, again showing the UCP2 mitochondria are more uncoupled.

[2] = test system: UCP2 expression in Rat Basophilic Leukemia cell (RBL); experiment: Northern blot of UCP2 expression in RBL cells; format: cell-based; set-up: dose or concentration left out as unconfirmed
Text: (A) A tumor mast cell line, the Rat Basophilic Leukemia cell (RBL), is a model system for studies of immune system signal transduction. In the RBL cell, binding of an antigen to the IgE receptor on the cell surface results in the activation of phospholipase C-gamma (PLCg). This event leads to the activation of protein kinase C (PKC) and an increase in intracellular calcium which are required for degranulation and gene expression in RBL cells. Several drugs can mimic the intracellular events and degranulation occuring in this cell type in response to antigen activation of the IgE receptor. The inophore Ionomycin causes the release of calcium from intracellular calcium stores and the phorbol ester PMA is able to directly activate PKC. Both of these drugs are required to achieve maximal activation of RBL cells. In order to determine the expression level of UCP2 in RBL cells, these cells were treated with Ionomycin ([…]), PMA ([…]) or both drugs.

[3] = test system: UCP2 mRNA in macrophage RAW cells; experiment: UCP2 mRNA in cultured macrophage RAW cells, northern normalized for actin; format: cell-based, mouse; details: macrophages treated with LPS
Text: (B) Bacterial lipopolysaccharide (LPS) regulates UCP2 mRNA in macrophages. Bacterial LPS is known to induce many of the features of infection, including fever. Thioglycolate elicited mouse macrophage (peritoneal exudate cells, PEC) have been studied for regulation of UCP2 mRNA by LPS. […] A study has also be made of UCP2 expression in cultured mouse macrophage RAW cells. These cells express UCP2. […] The LPS mediated decrease of UCP2 is not affected by indomethacin or by PGE2. All fo the macrophage northerns are normalized for actin expression and have been repeated at least once. […] The results are consistent with a role of UCP2 in immune function.

[4] = Roe et al, Metabolism 46:359 (1997); cited from earlier work
[5] = test system: mitochondrial potential of transformed yeast; experiment: Flow cytometry of mitochondrial membrane potential with DiOC6(3) in transformed yeast; format: cell-based, Saccharomyces cerevisiae
Text: FIG. 2. Flow cytometry analysis of membrane potential following the expression of UCP2 in S. cerevisiae; comparison of wild-type UCP1 and non-active UCP1 mutants. The number of cells (counts, Y-axis) is represented on a logarithmic scale of 1024 channels. The X-axis is a logarithmic scale of fluorescence intensity. A shift of the curve towards the left indicates a decreased mitochondrial potential. The horizontal bar on the left indicates the position of cells treated with mCICCP, a chemical uncoupler. The expression of UCP2, UCP1 or UCPmut mRNA in recombinant yeast, as well as its absence in wild type yeast, was checked by Northern blots.
(§1) Yeast transfections and functional analysis using flow cytometry. The diploid yeast (Saccharomyces cerevisiae) strain W303 (a/α; ade2-10; his 3-11-15; leu2-2, 112; ura3-1; can1-100; try-Δ1) was used for expression of UCP2. The pYedP-UCP2 or UCPmut expression vectors were introduced into yeast by electroporation and transformants were selected for uracil […] as described by Bouillaud et al (EMBO J. 13:1990 (1994)). Expression of the UCP2, UCP1 or UCPmut under the control of the gal-cyc promoter was induced by galactose in the absence of glucose. Growth of yeast for flow cytometry analysis and measurement of mitochondrial membrane potential using the DiOC6(3) fluorescent probe (3,3′-dihexyloxacarbocyanine iodine, Molecular Probes, Eugene, Oreg.) are described by Bouillaud et al (EMBO J. 13:1990 (1994)).
The in vivo decrease of membrane potential associated with uncoupling of respiration was analyzed by flow cytometry of yeast labeled with the potential sensitive probe DiOC6(3) . […] In the case of UCP2, 2 peaks were observed, one equivalent to cells expressing UCP1 and a second peak corresponding to a very low mitochondrial potential. Mean fluorescence intensities were: empty vector, 65.5; UCPmut, 43.0; UCP1, 22.5; UCP2, 15.5 and UCP2+mCICCP, 0.4 (FIG. 2). Very similar results were obtained in two additional experiments.

[6] = test system: yeast (Saccharomyces cerevisiae) strain W303; experiment: Growth rate (instantaneous generation time) of transformed yeast after galactose induction; format: cell-based; details: liquid medium, galactose-induced expression; ±SD
Text: as §1
To test the hypothesis that UCP2 is an uncoupling protein, yeast were transfected with UCP2 in an expression vector as previously reported for UCP1 (Bouillaud et al, EMBO J. 13:1990 (1994)). Rates of growth in liquid medium of transformed yeast were measured in the presence of galactose, which induces expression. Instantaneous generation times were compared after induction of vector, UCP2, control (empty) and UCP1 expression vectors. […]

[7] = yeast carrying the expression vector, lower = decreased mitochondrial potential

## C[C@H](Cc1ccc2c(c1)OC(C(=O)[O-])(C(=O)[O-])O2)NC[C@H](O)c1cccc(Cl)c1.[Na+].[Na+] [CL316,243]
UCP2 mRNA; 11-week-old fed male Swiss mice, BAT, WAT, thigh muscle and liver, treatment for 10 days
  Effect on UCP2 mRNA levels: did not influence UCP2 mRNA levels

## N#CC(C#N)=NNc1ccc(OC(F)(F)F)cc1 [FCCP]
[1]; control (pYeDP) mitochondria
  Respiratory rate increase factor upon addition of uncoupler: 7.1
[1]; pUCP2 mitochondria
  Respiratory rate increase factor upon addition of uncoupler: 4.3

## C[C@H](CCC(=O)O)C[C@H](C)C[C@H](C)C(=O)/C=C(\O)[C@H](C)C[C@H](C)C/C=C/[C@@H](C)[C@@H](O)[C@@H](C)[C@@H](O)C[C@@H]1CC[C@@](C)([C@H]2CC[C@@](C)([C@@H](C)O)O2)O1 [Ionomycin]
[2]
  Induction of UCP2 expression versus untreated control cells: ~4 fold

## CCCCC[C@H](O)/C=C/[C@H]1[C@H](O)CC(=O)[C@@H]1C/C=C\CCCC(=O)O [PGE2]
[3]
  Effect on the LPS mediated decrease of UCP2: not affected

## CCCCCCCCCCCCCC(=O)O[C@@H]1[C@@H](C)[C@@]2(O)[C@@H](C=C(CO)C[C@]3(O)C(=O)C(C)=C[C@@H]23)[C@@H]2C(C)(C)[C@]12OC(C)=O [PMA]
[2]
  Induction of UCP2 expression versus untreated control cells: ~4 fold

## COc1ccc2c(c1)c(CC(=O)O)c(C)n2C(=O)c1ccc(Cl)cc1 [indomethacin]
[3]
  Effect on the LPS mediated decrease of UCP2: not affected
[4]
  Effect on increased O2 consumption associated with cachexia of malignancy: attenuated

## N#CC(C#N)=NNc1cccc(Cl)c1 [mCICCP]
[5]; UCP2-expressing yeast treated with mCICCP
  Mean fluorescence intensity (DiOC6(3)): 0.4

## leptin: leptin, shown to increase sympathetic outflow to brown fat
UCP2 mRNA; 2 μg, 2×/day for 4 days
  Effect on UCP2 expression: failed to increased UCP2 expression
UCP2 mRNA; general statement: in vitro or in vivo
  Influence on UCP2 expression: not to influence UCP2 expression

B1: UCP1: uncoupling protein-1 of brown adipose tissue, expressed in yeast for comparison (protein, UniProt P25874 1-307, looked up)
Mitochondrial brown fat …: MGGLTASDVHPTLGVQLFSAGIAACLADVITFPLDTAKVRLQVQGECPTSSVIRYKGVLGTITAVVKTEGRMKLYSGLPAGLQRQISSASLRIGLYDTVQEFLTAGKETAPSLGSKILAGLTTGGVAVFIGQPTEVVKVRLQAQSHLHGIKPRYTGTYNAYRIIATTEGLTGLWKGTTPNLMRSVIINCTELVTYDLMKEAFVKNNILADDVPCHLVSALIAGFCATAMSSPVDVVKTRFINSPPGQYKSVPNCAMKVFTNEGPTAFFKGLVPSFLRLGSWNVIMFVCFEQLKRELSKSRQTMDCAT
[6]
  Instantaneous generation time: 226 ± 10 min
[5]; [7]
  Mean fluorescence intensity (DiOC6(3)): 22.5

B2: UCP2: uncoupling protein-2, expressed in yeast from the pYedP-UCP2 expression vector (protein, UniProt P55851 1-309, looked up)
Dicarboxylate carrier SLC25A8: MVGFKATDVPPTATVKFLGAGTAACIADLITFPLDTAKVRLQIQGESQGPVRATASAQYRGVMGTILTMVRTEGPRSLYNGLVAGLQRQMSFASVRIGLYDSVKQFYTKGSEHASIGSRLLAGSTTGALAVAVAQPTDVVKVRFQAQARAGGGRRYQSTVNAYKTIAREEGFRGLWKGTSPNVARNAIVNCAELVTYDLIKDALLKANLMTDDLPCHFTSAFGAGFCTTVIASPVDVVKTRYMNSALGQYSSAGHCALTMLQKEGPRAFYKGFMPSFLRLGSWNVVMFVTYEQLKRALMAACTSREAPF
[6]
  Instantaneous generation time: 260 ± 29 min
[5]; [7]
  Mean fluorescence intensity (DiOC6(3)): 15.5

— US20030119775A1, “Respiration uncoupling protein” (DUKE UNIVERSITY, priority 1997, published 2003)
